Values joined by “and” are separate entries in the source; they are usually repeats but may differ in a detail not shown here. Equal entries are not always repeated. “Also recorded” adds a separate entry of the source. Where two headings read alike, the source gives them in different places.
How the values were obtained:
GP tracheal rings = test: Direct relaxation of guinea pig tracheal rings contracted with TEA or substance P; details: CM-D-45 200 um, 15 minutes
Procedure: Male Hartley guinea pigs (approximately 400 g) were anesthetized with intraperitoneal pentobarbital (100 mg/kg). Trachea were removed and dissected under a dissecting microscope into closed rings comprised of two cartilaginous segments. Epithelium was removed by gentle abrasion on the tracheal lumen with cotton. Tissues were placed into cold Krebs-Henseleit (KH) buffer (in mM: NaCl 118, KCl 5.6, CaCl2 0.5, MgSO4 0.24, NaH2PO4 1.3, NaHCO3 25, glucose 5.6, pH 7.4) containing indomethacin 10 uM (DMSO final concentration in organ baths of 0.01%) to block tone due to endogenous release of prostanoids. […]
To determine the direct relaxant effect of α4 subunit containing GABAA receptor activation using different contractile agonists, GP tracheal rings prepared according to Reference Example 3 were contracted with a single dose (10 mM) of TEA or (1 uM) substance P. Following a plateau in the generated muscle force, a single dose of CM-D-45 (200 um) or vehicle control (DMSO 0.1%) was added to the organ bath buffer and the percentage of relaxation achieved was assessed over 15 minutes in comparison to intra-experimental matched vehicle controls.

[1] = tested on: GABAAR containing single α-subunits; test: Patch clamp assay of chloride-flux inward currents at GABAAR containing single α-subunits (FIG. 12); type: cell-based; details: dose-response curves, α4 or α6 GABAAR compared to other α-subtypes
From the text: Selectivity is quantified by dose-response curves showing greater inward currents (i.e., agonist activity) by action of GABAAR bearing a4 or a6 compared to other α-subtypes.
Two compounds having selective activity bias for α4-GABAAR were identified (FIG. 12). Patch clamp assays were used to quantify chloride flux induced inward currents resulting from agonism of GABAAR containing single α-subunits.

human Jurkat E6-1 cells = test: Automated patch clamp (IonFlux) for potentiation of GABA, membrane polarization in Jurkat E6-1 cells; type: cell-based; details: tested with 0.1 μM GABA; preliminary assay development studies
Procedure: Inserts show inward rectifying currents ([…]) at various doses. Compounds tested with 0.1 μM GABA. Curves show average of four determinations at indicated doses and standard deviations.
Both compounds were investigated using a CD4+ T-lymphocyte cell line (Jurkat E6-1) for potentiation of GABA using automated patch clamp (IonFlux). In contrast to manual patch clamp assays; this high throughput system enables dose dependent efficacy testing of more than 20 test conditions per day.

murine tracheal rings = test: Relaxation of acetylcholine-induced contraction in murine tracheal rings (wild type and GABAA α4 knockout), Example 13; details: CMD-45 100 uM, 30 minutes, ACh ~EC50; wild type vs GABAA α4 knockout mice; p<0.01 vs vehicle
From the text: Adult male C57/B16 wild type mice or adult male mice globally deficient in the GABAA a4 subunit (from Dr. Gregg Homanics, University of Pittsburgh) were euthanized with an overdose of sodium pentobarbital. Tracheas were rapidly removed and placed in modified Krebs-Henseleit buffer of the following composition in mM: 115 NaCl, 2.5 KCl, 1.91 CaCl2, 2.46 MgSO4, 1.38 NaH2PO4, 25 NaHCO3, 5.56 D-glucose: pH 7.4 Connective tissue was removed under a dissecting microscope and tracheas were cut in half axially. One-half trachea was used in each chamber of a myograph bath (DMT: Ann Arbor, Mich.), one-half used for vehicle treatment and the other half used for drug (i.e. CMD-45) treatment. […] Tension was continuously digitally recorded using BioPac hardware connected to Acknowledge software. […] An ACh ˜EC50 was determined for each tracheal ring based on these dose response curves.
In relaxation studies, tracheal ring were contracted to the determined ˜EC50 and force was allowed to plateau. Single concentrations of vehicle (0.1% DMSO) or CMD-45 (100 uM) were added and continuous muscle force was measured over 30 minutes. The data are expressed as the percent of remaining tone at 30 minutes relative to the initial force achieved with the EC50 concentration of acetylcholine. […]

[2] = tested on: Guinea pig tracheal rings; test: Airway smooth muscle force in guinea pig ex vivo tracheal rings, Example 20; details: added after acetylcholine EC50 contraction
Procedure: Male (400 g) Dunkin Hartley guinea pigs were anesthetized with 100 mg/kg pentobarbital. Trachea were removed and divided into 8 closed circular rings each comprised of 2 cartilagenous segments. Adventitia and epithelium were dissected off under a microscope. Closed rings were suspended in 2 ml Radnoti organ baths connected to a Grass FT03 force transducer under 1 g resting tension at 37° C. with bubbled oxygenation 95% O2/5% CO2 and allowed to equilibrate for 1 h at resting tension with buffer exchanges every 15 min. Continuous digital recording of airway smooth muscle contractile force was done with Biopac hardware connected to Acknowledge v 7.3.3 software. Preliminary contractile challenges with performed with acetylcholine dose responses (0.1 nM-100 uM) 3 times with buffer exchanges and resetting of resting tension between each dose response. The Guinea pig tracheal rings were contracted with acetylcholine (an EC50 concentration for each ring). Following stabilization of the contractile force, the GABAA α5 selective negative modulator or the GABAA non-selective antagonist gabazine was added to the buffer.

GABAA receptors [3] = test: Whole cell voltage clamp electrophysiology (Fluxion microfluidic plate) of human airway smooth muscle cells; type: cell-based
Procedure: (§1) Human immortalized bronchial smooth muscle cell lines prepared as described were grown to confluence in M199 media (Gibco) containing 10% fetal bovine serum, 0.25 ng/ml epidermal growth factor, 1 ng/ml fibroblast growth factor, ITS supplement (1 mg/ml insulin, 0.55 mg/ml transferrin, 0.67 ug/ml sodium selenium) and antibiotics (100 units/ml penicillin G sodium, 100 μg/ml streptomycin sulfate, 0.25 μg/ml amphotericin B) in a humidified atmosphere of 5% CO2/95% air at 37° C. Twenty four hours prior to study, cells were fed with serum and growth factor free media.
On the day of the assay, human airway smooth muscle cells (prepared as described in Reference Examples 1 and 2) were released from collagen-coated plates with collagenase type IV (Sigma C5138; 500 units/ml). The cells were resuspended in external buffer solution (In mM: NaCl 147, MgCl2 2, CaCl2 2, HEPES 10, dextrose 10; pH 7.2, osmolarity 320 mOsm) and rocked at room temperature to allow cells to obtain a spherical shape. Approximately 1 million cells were centrifuged (300×g, 3 min), washed ×2 in external buffer, and loaded (final volume of 400 uL) into a Fluxion microfluidic plate with each experimental group representing an ordered arrangement of 20 cells in parallel whole cell configuration. Following generation of adequate cellular membrane seals (40-120 MΩ), whole cell recordings were obtained under voltage clamp conditions (−80 mV) to a dose response to THIP (0.3 uM-300 uM). In separate assays cells were also co-treated simultaneously with 20 uM gabazine (GABAA receptor antagonist) and 25 uM THIP. In addition, to confirm that THIP-induced currents were due to chloride efflux, in separate experiments the intracellualar buffer (in mM: MgCl2 4, EGTA 10, HEPES 10, CsCl 130, Mg-ATP 4, CsOH 10, pH 7.2, 290 mOsM) was modified by replacing […] CsCl with 140 Cs gluconate to inhibit the magnitude of the […] current at −80 mV.

GABAA receptors [4] = test: FLIPR membrane potential fluorescent dye assay in cultured human airway smooth muscle cells; type: cell-based; details: for antagonism of THIP-induced fluorescent / membrane potential changes: picrotoxin 200 uM, THIP 500 uM and 1 mM
Procedure: as §1
To determine whether activation of GABAA receptors induces membrane potential changes in cultured human airway smooth muscle cells the FLIPR in vitro fluorescent dye assay (Molecular Devices) was used. Human airway smooth muscle cells (prepared as described in Reference Examples 1 and 2) were grown to 100% confluence in 96 well black-walled plates and were washed with warmed (37° C.) low chloride buffer (consisting of in mM: 160 sodium-D-gluconate, 4.5 potassium-D-gluconate, 2 CaCl2, 1 MgCl2, 10 D-glucose, and 10 Hepes pH 7.4) four times. A stock solution (100% dye) of FLIPR blue dye was prepared by reconstitution of 1 vial (125 mg) with 100 ml of the low chloride buffer (assay buffer). A 50% working stock was prepared by further diluting the reconstituted blue dye 1:1 with assay buffer and was used to load cells (90 ul/well) over 20 minutes at 37° C. All reagents were dissolved in assay buffer. Baseline fluorescence was measured for 3 min prior to the first control additions (assay buffer). Three minutes later, airway smooth muscle cells were exposed to varying concentrations of THIP (0-10 mM) to determine a dose response. The fluorescence produced by membrane potential change following solution additions was quantified after subtracting changes induced by assay buffer alone. For subsequent antagonist assays, the first solution injected was either assay buffer, vehicle control (0.05% DMSO final), or the GABAA receptor antagonist picrotoxin (200 uM final) followed THIP (either 0.5 or 1 mM).

[5] = tested on: Guinea pig (GP) tracheal rings; test: Isoproterenol-mediated relaxation of acetylcholine-contracted guinea pig tracheal rings with α4 GABAA selective agonist; details: for potentiation of isoproterenol-mediated relaxation: single dose 500 uM THIP or 200 uM taurine, acetylcholine pre-contracted; for EC50: Cavia porcellus, read-out: EC50 of isoproterenol relaxation concentration-response curve

COc1ccc2c(c1)C(=O)N1CCC[C@H]1c1c(C(=O)OC(C)C)ncn1-2
melting point: 215 to 217 °C

CNC(=O)c1ncn2c1[C@@H]1CCCN1C(=O)c1cc(OC)ccc1-2 [CM-D-45, N-methyl (S)-11,12,13,13a-tetrahydro-7-methoxy-9-oxo-9H-imidazo-[1,5-a]pyrrolo-[2,1-c][1,4]-benzodiazepine-1-carboxamide]
muscle force, % of initial force remaining after substance P contraction (GP tracheal rings; 1 uM substance P contraction): 61.3% and 61.3±16.9%
muscle force, % of initial TEA-induced force remaining (GP tracheal rings; 10 mM TEA contraction): 54.3% and 54.3±14.3%
functional selectivity among GABAAR α-subtypes (inward currents, agonist activity) [1]: selectivity bias in favor or α4 and α6-GABAAR
membrane polarization, inward rectifying currents (human Jurkat E6-1 cells): hyperpolarizing membrane dose-response signals can be generated
relaxation of an acetylcholine induced contraction (percent of remaining tone) (murine tracheal rings): relaxation of an acetylcholine (Ach) induced contraction in murine tracheal rings from wild-type but not GABAA α4 knockout mice

COCc1ncn2c1CN(C)C(=O)c1cc(Cl)ccc1-2 [PWZ-029]
change in airway smooth muscle force [2]: increase in force

Oc1noc2c1CCNC2 [THIP]
mean evoked current (GABAA receptors [3]; 10 uM THIP, 11/12 arrays of 20 cells in whole cell configuration): −670.4+27.6 pA
EC50 (GABAA receptors [3]; THIP 0 to 300 uM, voltage clamped at −80 mV, read-out: EC50, current elicited in whole cell configuration): ~15000 nM and 15000 nM
EC50 (GABAA receptors [4]; THIP 0 to 10 mM, low chloride buffer, n=12, read-out: EC50, change in relative fluorescence (membrane potential)): 245000 nM
muscle force, % of initial acetylcholine-induced force ([5]; THIP (500 uM) plus isoproterenol, n=8): 22.9 ±13.2%
potentiation of isoproterenol-mediated relaxation [5]: significantly potentiated the relaxant effects of isoproterenol

COc1ccc(-c2ccc(=N)n(CCCC(=O)O)n2)cc1 [gabazine]
attenuation of THIP induced whole cell currents (GABAA receptors [3]; gabazine with THIP 25 uM, −80 mV): attenuation of the THIP-induced current; also recorded: attenuation of THIP induced whole cell currents
reversal of agonist potentiation of isoproterenol-mediated relaxation ([5]; gabazine pretreatment 15 min prior to acetylcholine): significantly reversed the THIP potentiation of isoproterenol-mediated relaxation; also recorded: significantly reversed the potentiation of isoproterenol-mediated relaxation provided by taurine
muscle force, % of initial acetylcholine-induced force ([5]; gabazine pretreatment, then THIP plus isoproterenol, n=8): 53.1±11.4%

CC(C)NCC(O)c1ccc(O)c(O)c1 (stereo not shown) [isoproterenol]
EC50 ([5]; isoproterenol after a single concentration of 200 uM taurine, n=7): 2.4 nM
EC50 ([5]; isoproterenol after a single concentration of 500 uM THIP, n=8): 7.6 ± 0.5 nM
EC50 ([5]; isoproterenol only (THIP experiment), n=8): 32.8 nM
EC50 ([5]; isoproterenol only (taurine experiment), n=6): 15.8 nM
EC50 ([5]; isoproterenol with 200 uM taurine subsequent to 200 μM gabazine pretreatment, n=7): 4.7 nM
EC50 ([5]; isoproterenol with 500 uM THIP subsequent to 500 μM gabazine pretreatment, n=8): 11.8 ± 0.6 nM
muscle force, % of initial acetylcholine-induced force ([5]; isoproterenol alone at low concentration, n=8): 76.5±8.5%

NCCS(=O)(=O)O [taurine]
potentiation of isoproterenol-mediated relaxation [5]: potentiated isoproterenol-mediated relaxation

picrotoxin
antagonism of THIP-induced fluorescent / membrane potential changes (GABAA receptors [4]): attenuation of THIP-induced fluorescent changes
antagonism of THIP-induced fluorescent / membrane potential changes (GABAA receptors [4]; listed as Picrotoxin): antagonism of THIP mediated membrane potential changes persisted even under conditions of high dose THIP

Source: patent US9879020B2, “GABAA agonists and methods of using to control airway hyperresponsiveness and inflammation in asthma” (priority 2012, dated 2018)
